Assay [1] relates to P. aeruginosa. Put plainly: Checkerboard assay (antibiotic + adjuvant combination MIC). Format: cell-based, Pseudomonas aeruginosa. Particulars: for potentiation of novobiocin / MIC Alone: P. aeruginosa PAO1; for MIC Alone: β-lactam antibiotic alone. As to the method:
(§1) Antimicrobial Susceptibility Assay. The in vitro antimicrobial activity of all compounds/antibiotics against a panel of bacteria was evaluated by microbroth dilution method in accordance with the Clinical and Laboratory Standards Institute (CLSI) guidelines (using ATCC strains as quality control strains) (54). Overnight grown bacterial cultures were diluted in saline to achieve a 0.5 McFarland turbidity, followed by 1:50 dilution in Mueller-Hinton broth (MHB) for inoculation to a final concentration of approximately 5×10^5 CFU/mL. […] The lowest concentration that prevented the visible growth of bacteria was defined as the MIC for each antimicrobial agent. The broth with or without bacterial cells was used as positive or negative control, respectively.
Checkerboard Assay. Combination studies with different antibiotics were performed in 96-well plates as previously described (19). Briefly, the antibiotic of interest was serially diluted in MHB along the abscissa while the adjuvant (tobramycin homodimer) was serially diluted in MHB along the ordinate. This creates a 10×7 matrices wherein each well consists of a combination of different antibiotic and adjuvant concentrations. Overnight grown bacterial cultures were diluted in saline to achieve a 0.5 McFarland turbidity, followed by 1:50 dilution in Mueller-Hinton broth (MHB) for inoculation to a final concentration of approximately 5×10^5 CFU/mL. […] MIC was recorded as wells with the lowest concentration of drugs with no bacterial growth. The fractional inhibitory concentration (FIC) for each antibiotic was calculated by dividing the MIC of the antibiotic in the presence of adjuvant by the MIC of the antibiotic alone. Similarly, the FIC of adjuvant was calculated by dividing the MIC of the adjuvant in the presence of antibiotic by the MIC of the adjuvant alone. FIC index is the sum of both FICs. FIC indices of ≤0.5 were deemed synergistic; >0.5-4, no interaction; and >4, antagonistic.

Assay [2] relates to A. baumannii ATCC 17978 and resistant mutants. Put plainly: microbe, parasite or virus in culture. Format: cell-based, Acinetobacter baumannii. The note with it: Acinetobacter baumannii. The protocol:
as §1
Development of Resistance Study. […] Tobramycin and colistin were included as controls. At 24-hour intervals, the cultures were assessed for growth. […] This serial passaging was repeated for 8 days.

[3] abbreviates: ATCC17978, 18 h, Mutant C (seven serial passages, sub-MICs novobiocin + 7.1 μM compound 1).
Setting [4] is: ATCC17978, Mutant A (seven serial passages, sub-MICs novobiocin).
[5] abbreviates: ATCC17978, Mutant B (seven serial passages, sub-MICs colistin).
Setting [6] is: ATCC17978, Wild-type A. baumannii ATCC 17978.

In brackets after ≈: the same amount, converted by molar mass.

As for `CC(C)(C)OC(=O)NC[C@H]1O[C@H](O[C@H]2[C@H](OCCCCc3cn(CCCCO[C@@H]4[C@@H](O[C@H]5O[C@H](CO)[C@@H](O)[C@H](NC(=O)OC(C)(C)C)[C@H]5O)[C@H](NC(=O)OC(C)(C)C)C[C@H](NC(=O)OC(C)(C)C)[C@H]4O[C@H]4O[C@H](CNC(=O)OC(C)(C)C)[C@@H](O)C[C@H]4NC(=O)OC(C)(C)C)nn3)[C@@H](O[C@H]3O[C@H](CO)[C@@H](O)[C@H](NC(=O)OC(C)(C)C)[C@H]3O)[C@H](NC(=O)OC(C)(C)C)C[C@@H]2NC(=O)OC(C)(C)C)[C@H](NC(=O)OC(C)(C)C)C[C@@H]1O` [Compound 12a], the potentiation of novobiocin entry in assay [1] is “did not potentiate”.

In the case of `CO[C@H]1/C=C/O[C@@]2(C)Oc3c(C)c(O)c4c(O)c(c(/C=N/N5CCN(C)CC5)c(O)c4c3C2=O)NC(=O)/C(C)=C\C=C\[C@H](C)[C@H](O)[C@@H](C)[C@@H](O)[C@@H](C)[C@H](OC(C)=O)[C@@H]1C` [Rifampicin], the MIC in assay [2] (setting [3]) is 2 µg/mL; in assay [2] (setting [4]), 2 µg/mL (≈ 2.43 µM); in assay [2] (setting [5]) it was below 0.031 µg/mL; in assay [2] (setting [6]), 2 µg/mL (≈ 2.43 µM).

Consider `[N-]=[N+]=NCCCCO[C@@H]1[C@@H](O[C@H]2O[C@H](CO)[C@@H](O)[C@H](N)[C@H]2O)[C@H](N)C[C@H](N)[C@H]1O[C@H]1O[C@H](CN)[C@@H](O)C[C@H]1N` [Compound 5, 5-O-(4-Azidobutyl)-Tobramycin], for which, in assay [1], the potentiation of novobiocin result is recorded as “did not potentiate”.

`CCN1CCN(C(=O)N[C@@H](C(=O)N[C@@H]2C(=O)N3[C@@H]2SC(C)(C)[C@@H]3C(=O)O)c2ccccc2)C(=O)C1=O` [Piperacillin, reference compound]: the MIC Alone in assay [1] amounted to 8 µg/mL.

Consider `C[C@@H](O)[C@H]1C(=O)N2C(C(=O)O)=C(SCCN=CN)C[C@H]12` [Imipenem, reference compound], for which, in assay [1], the MIC Alone came to 4 µg/mL. Also, the MIC of IPM alone amounted to 64 µg/mL in assay [1] (PA 259-96918); 16 µg/mL in assay [1] (PA 260-97103); 32 µg/mL in assay [1] (PA 262-101856); 16 µg/mL in assay [1] (PA 264-104354); 32 µg/mL in assay [1] (PA 86052); 64 µg/mL in assay [1] (PA 88949). The MIC of IPM alone in assay [1] (PA 91433) amounted to 8 µg/mL; in assay [1] (PA 100036), 8 µg/mL; in assay [1] (PA 101243), 8 µg/mL; in assay [1] (PA 101885) it was 4 µg/mL; in assay [1] (PA 107092), 64 µg/mL; in assay [1] (PA 108590), 16 µg/mL. Besides, the MIC of IPM alone was found to be 16 µg/mL in assay [1] (PA 109084); 8 µg/mL in assay [1] (PA 114228); 4 µg/mL in assay [1] (PAO1); 4 µg/mL in assay [1] (PAO200 (efflux-deficient)); 4 µg/mL in assay [1] (PAO750 (efflux-deficient)).

Regarding `C[C@H]1[C@H](NC(=O)/C(=N\OC(C)(C)C(=O)O)c2csc(N)n2)C(=O)N1S(=O)(=O)O` [Aztreonam, reference compound], the MIC Alone in assay [1] was 4 µg/mL. Also, the MIC of ATM alone in assay [1] (PA 259-96918) is 32 µg/mL; in assay [1] (PA 260-97103), 64 µg/mL; in assay [1] (PA 262-101856), 32 µg/mL; in assay [1] (PA 264-104354), 32 µg/mL; in assay [1] (PA 86052) it was 64 µg/mL; in assay [1] (PA 88949), 32 µg/mL. In addition, the MIC of ATM alone came out at 16 µg/mL in assay [1] (PA 91433); 16 µg/mL in assay [1] (PA 100036); 32 µg/mL in assay [1] (PA 101243); 16 µg/mL in assay [1] (PA 101885); 64 µg/mL in assay [1] (PA 107092); 32 µg/mL in assay [1] (PA 108590). Moreover, the results for the MIC of ATM alone in assay [1] (PA 109084), in assay [1] (PA 114228) and in assay [1] (PAO1) were 64 µg/mL, 32 µg/mL and 4 µg/mL, respectively.

`CN(C)c1ccc(O)c2c1C[C@H]1C[C@H]3[C@H](N(C)C)C(O)=C(C(N)=O)C(=O)[C@@]3(O)C(O)=C1C2=O` [Minocycline]: the MIC in assay [2] (setting [3]) was 0.125 µg/mL; in assay [2] (setting [4]) it was 0.5 µg/mL (≈ 1.09 µM); in assay [2] (setting [5]) it was below 0.031 µg/mL; in assay [2] (setting [6]), 0.125 µg/mL (≈ 0.273 µM).

`O=C(N[C@H](CO)[C@H](O)c1ccc([N+](=O)[O-])cc1)C(Cl)Cl` [Chloramphenicol]: the MIC in assay [2] (setting [3]) is 64 µg/mL; in assay [2] (setting [4]), 32 µg/mL (≈ 99 µM); in assay [2] (setting [5]) it was 8 µg/mL (≈ 24.8 µM); in assay [2] (setting [6]) it was 64 µg/mL (≈ 198 µM).

Consider `C#CCCCCO[C@@H]1[C@@H](O[C@H]2O[C@H](CO)[C@@H](O)[C@H](N)[C@H]2O)[C@H](N)C[C@H](N)[C@H]1O[C@H]1O[C@H](CN)[C@@H](O)C[C@H]1N.O=C(O)C(F)(F)F.O=C(O)C(F)(F)F.O=C(O)C(F)(F)F.O=C(O)C(F)(F)F.O=C(O)C(F)(F)F` [Compound 4, 5-O-(Hexyne)-Tobramycin], for which the potentiation of novobiocin result in assay [1] is listed as “did not potentiate”.

Values taken from patent publication US20220249441A1, “Homodimeric Tobramycin Adjuvant Repurposes Novobiocin as an Effective Antibacterial Agent Against Gram-Negative Bacteria” (priority 2019, published 2022).
